The compounds below were run against T1, OGA (Homo sapiens, UniProt O60502) (assay: OGA cellular assay (ICC detection of O-GlcNAcylated proteins in HEK293 cells inducible for P301L mutant human Tau)). Conditions: HEK293, HEK293 cells inducible for P301L mutant human Tau, maximum = Thiamet G 200 uM.
T1 construct: HEK293 cells inducible for P301L mutant human Tau (isoform 2N4R) were established at Janssen; endogenous in cells; host or cells: HEK293 cells inducible for P301L mutant human Tau (2N4R)
T1 sequence (O60502 1-916): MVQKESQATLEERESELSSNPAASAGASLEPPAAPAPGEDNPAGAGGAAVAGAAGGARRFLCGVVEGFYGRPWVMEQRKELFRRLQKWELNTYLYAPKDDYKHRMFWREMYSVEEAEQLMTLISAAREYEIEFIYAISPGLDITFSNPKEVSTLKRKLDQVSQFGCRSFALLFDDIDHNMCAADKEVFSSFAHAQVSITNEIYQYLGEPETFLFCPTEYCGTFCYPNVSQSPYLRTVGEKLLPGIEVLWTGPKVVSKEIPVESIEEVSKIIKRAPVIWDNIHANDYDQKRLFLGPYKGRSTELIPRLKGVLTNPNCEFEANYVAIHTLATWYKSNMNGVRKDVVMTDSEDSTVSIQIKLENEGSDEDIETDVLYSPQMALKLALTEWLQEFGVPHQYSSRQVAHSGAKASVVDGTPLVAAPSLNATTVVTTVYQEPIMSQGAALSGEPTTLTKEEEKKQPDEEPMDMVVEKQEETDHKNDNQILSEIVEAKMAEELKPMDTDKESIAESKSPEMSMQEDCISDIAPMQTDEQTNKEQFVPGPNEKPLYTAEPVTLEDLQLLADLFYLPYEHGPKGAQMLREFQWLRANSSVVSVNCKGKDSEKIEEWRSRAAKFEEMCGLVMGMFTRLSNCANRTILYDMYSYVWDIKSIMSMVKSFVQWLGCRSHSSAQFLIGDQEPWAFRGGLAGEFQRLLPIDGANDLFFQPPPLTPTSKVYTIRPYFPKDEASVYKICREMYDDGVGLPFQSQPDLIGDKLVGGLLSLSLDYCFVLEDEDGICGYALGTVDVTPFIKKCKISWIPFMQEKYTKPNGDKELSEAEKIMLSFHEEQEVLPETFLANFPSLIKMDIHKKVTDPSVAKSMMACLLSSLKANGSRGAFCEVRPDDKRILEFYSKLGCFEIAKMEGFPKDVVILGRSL
Assay type: cell-based
Experimental: HEK293 cells inducible for P301L mutant human Tau (isoform 2N4R) were established at Janssen. Thiamet-G was used for both plate validation (high control) and as reference compound (reference EC50 assay validation). OGA inhibition is evaluated through the immunocytochemical (ICC) detection of O-GlcNAcylated proteins by the use of a monoclonal antibody (CTD110.6; Cell Signaling, #9875) detecting 0-GlcNAcylated residues as previously described (Dorfmueller et al. 2010 Chemistry & biology, 17:1250). Inhibition of OGA will result in an increase of O-GlcNAcylated protein levels resulting in an increased signal in the experiment. Cell nuclei are stained with Hoechst to give a cell culture quality control and a rough estimate of immediate compounds toxicity, if any. ICC pictures are imaged with a Perkin Elmer Opera Phenix plate microscope and quantified with the provided software Perkin Elmer Harmony 4.1.
Cells were propagated in DMEM high Glucose (Sigma, #D5796) following standard procedures. 2 days before the cell assay cells are split, counted and seeded in Poly-D-Lysine (PDL) coated 96-wells (Greiner, #655946) plate at a cell density of 12,000 cells per cm^2 (4,000 cells per well) in 100 μl of Assay Medium (Low Glucose medium is used to reduce basal levels of GlcNAcylation) (Park et al. 2014 The Journal of biological chemistry 289:13519). At the day of compound test medium from assay plates was removed and replenished with 90 μl of fresh Assay Medium. 10 μl of compounds at a 10fold final concentration were added to the wells. Plates were centrifuged shortly before incubation in the cell incubator for 6 hours. DMSO concentration was set to 0.2%. Medium is discarded by applying vacuum. For staining of cells medium was removed and cells washed once with 100 μl D-PBS (Sigma, #D8537). From next step onwards unless other stated assay volume was always 50 μl and incubation was performed without agitation and at room temperature. Cells were fixed in 50 μl of a 4% paraformaldehyde (PFA, Alpha aesar, #043368) PBS solution for 15 minutes at room temperature. […] Before analysis samples were washed 2 times manually for 5 minutes in ICC base buffer.
Imaging is performed using Perkin Elmer Phenix Opera using a water 20× objective and recording 9 fields per well. Intensity readout at 488 nm is used as a measure of O-GlcNAcylation level of total proteins in wells. To assess potential toxicity of compounds nuclei were counted using the Hoechst staining. IC50-values are calculated using parametric non-linear regression model fitting. As a maximum inhibition Thiamet G at a 200 uM concentration is present on each plate. In addition, a concentration response of Thiamet G is calculated on each plate.

Row | Emax | SMILES
1 | 5% | Cc1cc(CO[C@H]2CCCN(C(C)c3ccc4sc(C)nc4n3)C2)cc(C)n1 (single isomer, unassigned) [Compound 67]
2 | -6% | Cc1cc(CO[C@@H]2CCCN(C(C)c3ccc4sc(C)nc4n3)C2)cc(C)n1 (single isomer, unassigned) [Compound 69]
3 | 18% | Cc1cc(C[C@@H]2CCN(C(C)c3ccc4sc(C)nc4n3)C2)nc(C)n1 (single isomer, unassigned) [Compound 72]
4 | 75% | Cc1cc([C@H]2CCCN(C(C)c3nc4nc(C)sc4cc3F)C2)cc(C)n1 (single isomer, unassigned) [Compound 85]
5 | 12% | Cc1cc([C@H]2CCCN([C@H](C)c3nc4nc(C)sc4cc3F)C2)cc(C)n1 (single isomer, unassigned) [Compound 86]

Same assay, conditions: HEK293 cells inducible for P301L mutant human Tau, 6 hours incubation; read-out: Cellular hOGA; pEC50 (converted)

Row | EC50 | SMILES
6 | > 1000 nM | Cc1cc(CO[C@H]2CCCN(C(C)c3ccc4sc(C)nc4n3)C2)cc(C)n1 (single isomer, unassigned) [Compound 67]
7 | > 1000 nM | Cc1cc(CO[C@@H]2CCCN(C(C)c3ccc4sc(C)nc4n3)C2)cc(C)n1 (single isomer, unassigned) [Compound 69]
8 | > 1000 nM | Cc1cc(C[C@@H]2CCN(C(C)c3ccc4sc(C)nc4n3)C2)nc(C)n1 (single isomer, unassigned) [Compound 72]
9 | 10 nM | Cc1cc([C@H]2CCCN(C(C)c3nc4nc(C)sc4cc3F)C2)cc(C)n1 (single isomer, unassigned) [Compound 85]
10 | > 1000 nM | Cc1cc([C@H]2CCCN([C@H](C)c3nc4nc(C)sc4cc3F)C2)cc(C)n1 (single isomer, unassigned) [Compound 86]

The compounds below were run against T2, recombinant human Meningioma Expressed Antigen 5 (MGEA5), also referred to as O-GlcNAcase (OGA) (Homo sapiens, UniProt O60502) (assay: OGA biochemical assay (inhibition of FM-GlcNAc hydrolysis, fluorescence)). Conditions: FM-GlcNAc substrate, 6 h at room temperature, read-out: Enzymatic hOGA, pIC50 (converted).
T2 construct: Full length OGA enzyme was purchased at OriGene (cat #TP322411); purchased OriGene TP322411
T2 sequence (O60502 1-916): T1 sequence (O60502 1-916)
Description: The assay is based on the inhibition of the hydrolysis of fluorescein mono-β-D-N-Acetyl-Glucosamine (FM-GlcNAc) (Mariappa et al. 2015, Biochem J 470:255) by the recombinant human Meningioma Expressed Antigen 5 (MGEA5), also referred to as O-GlcNAcase (OGA). The hydrolysis FM-GlcNAc (Marker Gene technologies, cat #M1485) results in the formation of β-D-N-glucosamineacetate and fluorescein. The fluorescence of the latter can be measured at excitation wavelength 485 nm and emission wavelength 538 nm. An increase in enzyme activity results in an increase in fluorescence signal. Full length OGA enzyme was purchased at OriGene (cat #TP322411). The enzyme was stored in 25 mM Tris.HCl, pH 7.3, 100 mM glycine, 10% glycerol at −20° C. Thiamet G and GlcNAcStatin were tested as reference compounds (Yuzwa et al. 2008 Nature Chemical Biology 4:483; Yuzwa et al. 2012 Nature Chemical Biology 8:393). The assay was performed in 200 mM Citrate/phosphate buffer supplemented with 0.005% Tween-20. 35.6 g Na2HPO4 2H2O (Sigma, #C0759) were dissolved in 1 L water to obtain a 200 mM solution. 19.2 g citric acid (Merck, #1.06580) was dissolved in 1 L water to obtain a 100 mM solution. pH of the sodiumphosphate solution was adjusted with the citric acid solution to 7.2. The buffer to stop the reaction consists of a 500 mM Carbonate buffer, pH 11.0. 734 mg FM-GlcNAc were dissolved in 5.48 mL DMSO to obtain a 250 mM solution and was stored at −20° C. OGA was used at a 2 nM concentration and FM-GlcNAc at a 100 uM final concentration. Dilutions were prepared in assay buffer.
50 nl of a compound dissolved in DMSO was dispensed on Black Proxiplate™ 384 Plus Assay plates (Perkin Elmer, #6008269) and 3 μl fl-OGA enzyme mix added subsequently. Plates were pre-incubated for 60 min at room temperature and then 2 μl FM-GlcNAc substrate mix added. […] Plates were briefly centrifuged for 1 min at 1000 rpm and incubate at room temperature for 6 h. To stop the reaction 5 μl STOP buffer were added and plates centrifuge again 1 min at 1000 rpm. Fluorescence was quantified in the Thermo Scientific Fluoroskan Ascent or the PerkinElmer EnVision with excitation wavelength 485 nm and emission wavelength 538 nm.
For analysis a best-fit curve is fitted by a minimum sum of squares method. From this an IC50 value and Hill coefficient was obtained. High control (no inhibitor) and low control (saturating concentrations of standard inhibitor) were used to define the minimum and maximum values.

Row | IC50 | SMILES
11 | 501 nM | Cc1cc(CO[C@H]2CCCN(C(C)c3ccc4sc(C)nc4n3)C2)cc(C)n1 (single isomer, unassigned) [Compound 67]
12 | 501 nM | Cc1cc(CO[C@@H]2CCCN(C(C)c3ccc4sc(C)nc4n3)C2)cc(C)n1 (single isomer, unassigned) [Compound 69]
13 | 316 nM | Cc1cc(C[C@@H]2CCN(C(C)c3ccc4sc(C)nc4n3)C2)nc(C)n1 (single isomer, unassigned) [Compound 72]
14 | 3.98 nM | Cc1cc([C@H]2CCCN(C(C)c3nc4nc(C)sc4cc3F)C2)cc(C)n1 (single isomer, unassigned) [Compound 85]
15 | 1580 nM | Cc1cc([C@H]2CCCN([C@H](C)c3nc4nc(C)sc4cc3F)C2)cc(C)n1 (single isomer, unassigned) [Compound 86]

Same assay, conditions: FM-GlcNAc substrate, maximal effect, read-out: Enzymatic Emax (%)

Row | Emax | SMILES
16 | 94% | Cc1cc(CO[C@H]2CCCN(C(C)c3ccc4sc(C)nc4n3)C2)cc(C)n1 (single isomer, unassigned) [Compound 67]
17 | 96% | Cc1cc(CO[C@@H]2CCCN(C(C)c3ccc4sc(C)nc4n3)C2)cc(C)n1 (single isomer, unassigned) [Compound 69]
18 | 95% | Cc1cc(C[C@@H]2CCN(C(C)c3ccc4sc(C)nc4n3)C2)nc(C)n1 (single isomer, unassigned) [Compound 72]
19 | 100% | Cc1cc([C@H]2CCCN(C(C)c3nc4nc(C)sc4cc3F)C2)cc(C)n1 (single isomer, unassigned) [Compound 85]
20 | 95% | Cc1cc([C@H]2CCCN([C@H](C)c3nc4nc(C)sc4cc3F)C2)cc(C)n1 (single isomer, unassigned) [Compound 86]
